Test results as given in patent publication US7396837B2, “Antitumoral analogs of lamellarins” (Pharma Mar, S.A.U., priority 2002, dated 2008).

Tests used:
Assay type in all cases: cell-based
SK-MEL-28 = test: SRB colorimetric cell growth inhibition assay, SK-MEL-28; details: MEL-28
Procedure, shortened: (§1)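 Human tumour cells continuously exposed to compound in 96-well culture; growth and viability quantified colorimetrically by sulforhodamine B staining. Mean ± SD from triplicate wells; GI (growth inhibition), TGI (total growth inhibition, cytostatic) and LC (cell killing, cytotoxic) parameters derived.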

SK-BR-3 = test: SRB colorimetric cell growth inhibition assay, SK-BR-3; details: SK-BR-3
Procedure, shortened: as §1

IGROV-ET = test: SRB colorimetric cell growth inhibition assay, IGROV-ET (ET-743 resistant); details: IGROV-ET
Procedure, shortened: as §1

K-562 = test: SRB colorimetric cell growth inhibition assay, K-562
Procedure, shortened: as §1

DU-145 = test: SRB colorimetric cell growth inhibition assay, DU-145; details: DU-145
Procedure, shortened: as §1

PANC-1 = test: SRB colorimetric cell growth inhibition assay, PANC-1; details: PANC-1
Procedure, shortened: as §1

A-549 = test: SRB colorimetric cell growth inhibition assay, A-549; details: A-549
Procedure, shortened: as §1

LNCaP = test: SRB colorimetric cell growth inhibition assay, LNCaP; details: LN-caP
Procedure, shortened: as §1

LoVo = test: SRB colorimetric cell growth inhibition assay, LoVo; details: LOVO
Procedure, shortened: as §1

HeLa = test: SRB colorimetric cell growth inhibition assay, HeLa; details: HELA
Procedure, shortened: as §1

HT-29 = test: SRB colorimetric cell growth inhibition assay, HT-29; details: HT-29
Procedure, shortened: as §1

LoVo-Dox = test: SRB colorimetric cell growth inhibition assay, LoVo-Dox (MDR); details: LOVO-DOX
Procedure, shortened: as §1

HeLa-APL = test: SRB colorimetric cell growth inhibition assay, HeLa-APL (aplidine resistant); details: HELA-APL
Procedure, shortened: as §1

IGROV = test: SRB colorimetric cell growth inhibition assay, IGROV; details: IGROV
Procedure, shortened: as §1

[1] = total growth inhibition (cytostatic effect)

SMILES: COc1cc(-c2c3c4cc(OC)c(OC(=O)[C@H](C)N)cc4oc(=O)c3n3ccc4c(OC(=O)[C@H](C)N)c(OC)c(OC)cc4c23)ccc1OC(=O)[C@H](C)N [Compound 16]
- GI50 (SK-MEL-28; GI=growth inhibition, read-out: GI50 MEL-28): 138 nM
- CC50 (SK-MEL-28; cell killing (cytotoxic effect), read-out: LC50 MEL-28): 669 nM
- TGI MEL-28 (SK-MEL-28; [1]): 3.04E−07 Molar
- GI50 (SK-BR-3; GI=growth inhibition, read-out: GI50 SK-BR-3): 207 nM
- CC50 (SK-BR-3; cell killing (cytotoxic effect), read-out: LC50 SK-BR-3): 816 nM
- TGI SK-BR-3 (SK-BR-3; [1]): 4.11E−07 Molar
- GI50 (IGROV-ET; GI=growth inhibition, read-out: GI50 IGROV-ET): 278 nM
- CC50 (IGROV-ET; cell killing (cytotoxic effect), read-out: LC50 IGROV-ET): 897 nM
- TGI IGROV-ET (IGROV-ET; [1]): 5.00E−07 Molar
- GI50 (K-562; Homo sapiens, K562, K-562, GI=growth inhibition, read-out: GI50 K-562): 183 nM
- CC50 (K-562; K-562, cell killing (cytotoxic effect), read-out: LC50 K-562): 2230 nM
- TGI K-562 (K-562; K-562, total growth inhibition (cytostatic effect)): 4.45E−07 Molar
- GI50 (DU-145; GI=growth inhibition, read-out: GI50 DU-145): 52.7 nM
- CC50 (DU-145; cell killing (cytotoxic effect), read-out: LC50 DU-145): 2800 nM
- TGI DU-145 (DU-145; [1]): 2.98E−07 Molar
- GI50 (PANC-1; GI=growth inhibition, read-out: GI50 PANC-1): 241 nM
- CC50 (PANC-1; cell killing (cytotoxic effect), read-out: LC50 PANC-1): 3.34 µM
- TGI PANC-1 (PANC-1; [1]): 7.56E−07 Molar
- GI50 (A-549; GI=growth inhibition, read-out: GI50 A-549): 178 nM
- CC50 (A-549; cell killing (cytotoxic effect), read-out: LC50 A-549): 3.05 µM
- TGI A-549 (A-549; [1]): 5.02E−07 Molar
- GI50 (LNCaP; GI=growth inhibition, read-out: GI50 LN-caP): 131 nM
- CC50 (LNCaP; cell killing (cytotoxic effect), read-out: LC50 LN-caP): 534 nM
- TGI LN-caP (LNCaP; [1]): 2.65E−07 Molar
- GI50 (LoVo; GI=growth inhibition, read-out: GI50 LOVO): 196 nM
- CC50 (LoVo; cell killing (cytotoxic effect), read-out: LC50 LOVO): 612 nM
- TGI LOVO (LoVo; [1]): 3.47E−07 Molar
- GI50 (HeLa; GI=growth inhibition, read-out: GI50 HELA): 193 nM
- CC50 (HeLa; cell killing (cytotoxic effect), read-out: LC50 HELA): 703 nM
- TGI HELA (HeLa; [1]): 3.68E−07 Molar
- GI50 (HT-29; GI=growth inhibition, read-out: GI50 HT-29): 411 nM
- CC50 (HT-29; cell killing (cytotoxic effect), read-out: LC50 HT-29): 5 µM
- TGI HT-29 (HT-29; [1]): 9.31E−07 Molar
- GI50 (LoVo-Dox; Homo sapiens, GI=growth inhibition, read-out: GI50 LOVO-DOX): 420 nM
- CC50 (LoVo-Dox; cell killing (cytotoxic effect), read-out: LC50 LOVO-DOX): 4.42 µM
- TGI LOVO-DOX (LoVo-Dox; [1]): 1.03E−06 Molar
- GI50 (HeLa-APL; GI=growth inhibition, read-out: GI50 HELA-APL): 229 nM
- CC50 (HeLa-APL; cell killing (cytotoxic effect), read-out: LC50 HELA-APL): 2380 nM
- TGI HELA-APL (HeLa-APL; [1]): 5.20E−07 Molar
- GI50 (IGROV; GI=growth inhibition, read-out: GI50 IGROV): 226 nM
- CC50 (IGROV; cell killing (cytotoxic effect), read-out: LC50 IGROV): 1590 nM
- TGI IGROV (IGROV; [1]): 4.78E−07 Molar
